Laboratory results published in US6251897A, “6-phenyltetrahydro-1,3-oxazin-2-one derivative and pharmaceutical composition containing the same” (Nikken Chemicals Co., LTD, priority 1996, dated 2001).
Blank lines part the entries; values can stand above or below the compound they belong to.

Columns and labels:
[1] = tested on: antigen-induced bronchospasm in guinea pig; assay: Inhibitory effect on antigen-induced bronchospasm (Konzett-Roessler, ovalbumin-sensitized); format: in vivo, guinea pig (Hartley male); settings: Cavia porcellus; intravenous, 10 minutes before antigen (0.2 mg/kg OA i.v.); read-out: Action for suppressing antigen-induced bronchospasms ED50
Description: A Hartley male guinea pig was sensitized by intramuscular administration of […] Ovalbumin (OA) on first day and fourth day, and used after 24th day. A trachial canula was introduced in the guinea pig anesthetized with pentobarbital and artificial ventilation was performed 25 to 29 days after the first sensitization. The overflow of the ventilation was measured by the Konzett-Roessler method while 0.2 mg/kg OA were administered intravenously. The test compound was dissolved in polyethylene glycol 400 and intravenously administered 10 minutes before administration of the antigens.

[2] = tested on: Type IV PDE; assay: PDE inhibitory activity, type IV isozyme (3H-cAMP hydrolysis); format: biochemical; settings: partially purified from rat neutrophils, 30° C., 30 minutes
Description: Type I, III, IV, and V PDE isozymes were prepared to study the PDE inhibitory activities and selectivities with the compound of the invention [Trends Pharmacol. Sci., 12, 19-27 (1992)]. Type I PDE was purchased from Sigma Corp. Type III, IV, and V PDE isozymes were partially purified from rats platelets (Type III and V) or neutrophils (Type IV). Each enzyme source was homogenized in a buffer (pH 6.5) containing 20 mM bisTris, 2 mM EDTA (ethylenediamine tetraacetate), 0.1 mM PMSF (phenylmethylsulfonyl fluoride), 5 mM 2-mercaptoethanol, 0.001 mM pepstatin, and 0.01 mM leupeptin and was centrifuged at 30,000×G for 30 minutes to obtain a supernatant, which was applied to an ion exchange column (Q-sepharose First Flow, Pharmacia Corp.) and was eluted with 0 to 1M sodium acetate. Partially purified isozymes were identified by observing the effects of conventional inhibitors.
Each PDE isozyme and the test compound dissolved in DMSO (dimethyl sulfoxide) were added to 50 mM Tris-HCl buffer containing 5 mM magnesium chloride. ^3 H-cAMP (for type III and IV PDE) or ^3 H-cGMP (for type I and V PDE) were added as substrates and were reacted at 30° C. for 30 minutes. The reaction was terminated by placing the test tube in boiling water of 100° C. for 5 minutes. The nucleotides formed by PDE were broken down by 5'-nucleotidase to ^3 H-adenosine or ^3 H-guanosine. The unreacted substrate and reaction product were separated through an ion-exchange column (QAE sephadex, Pharmacia Corp.) The eluted ^3 H-nucleoside was measured for its radioactivity by a liquid scintillation counter. The inhibiting activities of the compound of the present invention are shown by the IC50 value (M). Further, the inhibitory activities of the test samples against Type I, III, and V are 1/10 or less than that against type IV.

IC50 [2]: 2 µM
SMILES: COc1ccc(C2CCN(C)C(=O)O2)cc1OCC1CC1 (stereo not drawn) [Compound No. 49, 6-(3-cyclopropylmethyloxy-4-methoxyphenyl)-3-methyl-3,4 5,6-tetrahydro-2H-1,3-oxazin-2-one]
ED50 [1]: 3.1 mg/kg

IC50 [2]: 1.9 µM
SMILES: COc1ccc(C2(C)CCN(C)C(=O)O2)cc1OCC1CC1 (stereo not drawn) [Compound No. 51, 6-(3-cyclopropylmethyloxy-4-methoxyphenyl)-3,6-dimethyl-3,4,5,6-tetrahydro-2H-1,3-oxazin-2-one]
ED50 [1]: 2.23 mg/kg

IC50 [2]: 0.66 µM
SMILES: COc1ccc(C2(C)CCN(C)C(=O)O2)cc1OC1CCCC1 (stereo not drawn) [Compound No. 21, 6-(3-cyclopentyloxy-4-methoxyphenyl)-3,6-dimethyl-3,4,5,6-tetrahydro-2H-1,3-oxazin-2-one]
ED50 [1]: 0.29 mg/kg

IC50 [2]: 2.2 µM
SMILES: COc1ccc(C2CCN(Cc3cccs3)C(=O)O2)cc1OC1CCCC1 (stereo not drawn) [Compound No. 38, 6-(3-cyclopentyloxy-4-methoxyphenyl)-3-(2-thienylmethyl)-3,4.56-tetrahydro-2H-1,3-oxazin-2-one]

IC50 [2]: 3.3 µM
SMILES: COc1ccc(C2CCN(C)C(=O)O2)cc1OCC1CCC1 (stereo not drawn) [Compound No. 62, 6-(3-cyclobutylmethyloxy-4-methoxyphenyl)-3-methyl-3,4,5,6-tetrahydro-2H-1,3-oxazin-2-one]

IC50 [2]: 0.073 µM
SMILES: COc1ccc(C2CCN(Cc3ccc4ccccc4n3)C(=O)O2)cc1OC1CCCC1 (stereo not drawn) [Compound No. 12, 6-(3-cyclopentyloxy-4-methoxyphenyl)-3-(2-quinolylmethyl)-3,4,5 6-tetrahydro-2H-1,3-oxazin-2-one]

IC50 [2]: 2.6 µM
SMILES: COc1ccc(C2CCN(C)C(=O)O2)cc1OCCc1cccc2ccccc12 (stereo not drawn) [Compound No. 68, 6-[4-methoxy-3-[2-(1-naphthyl)ethoxy]phenyl]-3-methyl-3,4,5,6-tetrahydro-2H-1,3-oxazin-2-one]

IC50 [2]: 2 µM
SMILES: COc1ccc(C2CCN(Cc3ccco3)C(=O)O2)cc1OC1CCCC1 (stereo not drawn) [Compound No. 35, 6-(3-cyclopentyloxy-4-methoxyphenyl)-3-(2-furylmethyl)-3,4,5,6-tetrahydro-2H-1,3-oxazin-2-one]

IC50 [2]: 8.8 µM
SMILES: COc1ccc(C2CCN(CCN3CCOCC3)C(=O)O2)cc1OC1CCCC1 (stereo not drawn) [Compound No. 33, 6-(3-cyclopentyloxy-4-methoxyphenyl)-3-[2-(4-morpholino)ethyl]-3,4,5,6-tetrahydro-2H-1,3-oxazin-2-one]

IC50 [2]: 4.5 µM
SMILES: COc1ccc(C2CCN(Cc3cnccn3)C(=O)O2)cc1OC1CCCC1 (stereo not drawn) [Compound No. 37, 6-(3-cyclopentyloxy-4-methoxyphenyl) -3-(2-pyrazinylmethyl)-3,4,5,6-tetrahydro-2H-1,3-oxazin-2-one]

IC50 [2]: 1.1 µM
SMILES: COc1ccc(C2CCNC(=O)O2)cc1OCCc1cccc2ccccc12 (stereo not drawn) [Compound No. 67, 6-[4-methoxy-3-[2-(1-naphthyl)ethoxy]phenyl]-3,4,5,6-tetrahydro-2H-1,3-oxazin-2-one]

IC50 [2]: 35 µM
SMILES: COc1ccc(C2CCNC(=O)O2)cc1OC1CCN(Cc2ccccc2)CC1 (stereo not drawn) [Compound No. 89, 6-[3-(1-benzyl-4-piperidyloxy)-4-methoxyphenyl]-3,4,5,6-tetrahydro-2H-1,3-oxazin-2-one]

IC50 [2]: 1.8 µM
SMILES: COc1ccc(C2CCN(C)C(=O)O2)cc1OCCc1ccc(F)cc1 (stereo not drawn) [Compound No. 75, 6-[3-[2-(4-fluorophenyl)ethoxy]-4-methoxyphenyl]-3-methyl-3,4,5,6-tetrahydro-2H-1,3-oxazin-2-one]

IC50 [2]: 0.86 µM
SMILES: COc1ccc(C2OC(=O)N(C)CC2(C)C)cc1OC1CCCC1 (stereo not drawn) [Compound No. 86, 6-(3-cyclopentyloxy-4-methoxyphenyl)-3,5,5-trimethyl-3,4,5,6-tetrahydro-2H-1,3-oxazin-2-one]

IC50 [2]: 3.4 µM
SMILES: COc1ccc(C2(c3cccs3)CCNC(=O)O2)cc1OC1CCCC1 (stereo not drawn) [Compound No. 29, 6-(3-cyclopentyloxy-4-methoxyphenyl)-6-(2-thienyl)-3,4,5,6-tetrahydro-2H-1,3-oxazin-2-one]

The remaining lines, values behind:

SMILES: COc1ccc(C2CCN(Cc3ccccn3)C(=O)O2)cc1OC1CCCC1 (stereo not drawn) [Compound No. 16]
ED50 [1]: 2.1 mg/kg
IC50 [2]: 5.5 µM

SMILES: COc1ccc(C2CCN(C)C(=O)O2)cc1OCCc1scnc1C (stereo not drawn) [compound 73, 6-[4-methoxy-3-[2-(4-methyl-5-thiazolyl)ethoxy]phenyl]-3-methyl-3,4,5,6-tetrahydro-2H-1,3-oxazin-2-one]
IC50 [2]: 7.3 µM

SMILES: CCCCOc1cc(C2(C)CCNC(=O)O2)ccc1OC (stereo not drawn) [Compound No. 52, 6-(3-butoxy-4-methoxyphenyl)-6-methyl-3,4,5,6-tetrahydro-2H-1,3-oxazin-2-one]
IC50 [2]: 1.4 µM

SMILES: COc1ccc(C2(C)CCNC(=O)O2)cc1OCCCCCc1ccccc1 (stereo not drawn) [Compound No. 45, 6-[4-methoxy-3-(5-phenylpentyloxy)phenyl]-6-methyl-3,4,5,6-tetrahydro-2H-1,3-oxazin-2-one]
IC50 [2]: 0.26 µM

SMILES: COc1ccc(C2CCN(C)C(=O)O2)cc1OCCOCc1ccccc1 (stereo not drawn) [Compound No. 84, 6-[3-(2-benzyloxyethoxy)-4-methoxyphenyl]-3-methyl-3,4,5,6-tetrahydro-2H-1,3-oxazin-2-one]
IC50 [2]: 3.1 µM

SMILES: COc1ccc(C2(c3ccccc3)CCNC(=O)O2)cc1OC1CCCC1 (stereo not drawn) [Compound No. 7, 6-(3-cyclopentyloxy-4-methoxyphenyl)-6-phenyl-3,4,5,6-tetrahydro-2H-1,3-oxazin-2-one]
IC50 [2]: 4.3 µM

SMILES: COc1ccc(C2CCNC(=O)O2)cc1OCCOCc1ccccc1 (stereo not drawn) [Compound No. 83, 6-[3-(2-benzyloxyethoxy)-4-methoxyphenyl]-3,4,5,6-tetrahydro-2H-1,3-oxazin-2-one]
IC50 [2]: 3.4 µM

SMILES: COc1ccc(C2CCN(C(=O)c3ccccc3)C(=O)O2)cc1OC1CCCC1 (stereo not drawn) [Compound No. 18, 3-benzoyl-6-(3-cyclopentyloxy-4-methoxyphenyl)-3,4,5,6-tetrahydro-2H-1,3-oxazin-2-one]
IC50 [2]: 0.41 µM

SMILES: CCCCOc1cc(C2CCN(C)C(=O)O2)ccc1OC (stereo not drawn) [Compound No. 53, 6-(3-butoxy-4-methoxyphenyl)-3-methyl-3,4,5,6-tetrahydro-2H-1,3-oxazin-2-one]
IC50 [2]: 9.1 µM

SMILES: COc1ccc(C2CCN(C)C(=O)O2)cc1OC1c2ccccc2CCc2ccccc21 (stereo not drawn) [Compound No. 59, 6-[3-(10,11-dihydro-5H-dibenzo[a,d]cyclohepten-5-yloxy)-4-methoxyphenyl]-3-methyl-3,4,5,6-tetrahydro-2H-1,3-oxazin-2-one]
IC50 [2]: 27 µM

SMILES: COc1ccc(C2CCNC(=O)O2)cc1OC1c2ccccc2CCc2ccccc21 (stereo not drawn) [Compound No. 58, 6-[3-(10,11-dihydro-5H-dibenzo[a,d]cyclohepten-5-yloxy)-4-methoxyphenyl]-3,4,5,6-tetrahydro-2H-1,3-oxazin-2-one]
IC50 [2]: 9.4 µM

SMILES: CCCCC1(c2ccc(OC)c(OC3CCCC3)c2)CCNC(=O)O1 (stereo not drawn) [Compound No. 30, 6-butyl-6-(3-cyclopentyloxy-4-methoxyphenyl)-3,4,5,6-tetrahydro-2H-1,3-oxazin-2-one]
IC50 [2]: 9 µM

SMILES: COc1ccc(C2CCNC(=O)O2)cc1OCC1(C)CC1 (stereo not drawn) [Compound No. 63, 6-[4-methoxy-3-[(1-methylcyclopropyl)methyloxy]phenyl]-3,4,5,6-tetrahydro-2H-1,3-oxazin-2-one]
IC50 [2]: 3.4 µM

SMILES: CCOC(=O)CN1CCC(c2ccc(OC)c(OC3CCCC3)c2)OC1=O (stereo not drawn) [Compound No. 19, 6-(3-cyclopentyloxy-4-methoxyphenyl)-3-(ethoxycarbonylmethyl)-3,4,5,6-tetrahydro-2H-1,3-oxazin-2-one]
IC50 [2]: 1.8 µM
